Results as given in ChEMBL document CHEMBL2163296 (J Med Chem, 2012).
Calls of active or inactive are those of the source. No cut-off for these calls is given here.

How the values were obtained:
[1] = target: T1, 5-hydroxytryptamine receptor 1F (Homo sapiens) (UniProt P30939); experiment: Binding affinity to 5HT1F receptor after 1.5 hrs by scintillation counter
T1 sequence (whole entry): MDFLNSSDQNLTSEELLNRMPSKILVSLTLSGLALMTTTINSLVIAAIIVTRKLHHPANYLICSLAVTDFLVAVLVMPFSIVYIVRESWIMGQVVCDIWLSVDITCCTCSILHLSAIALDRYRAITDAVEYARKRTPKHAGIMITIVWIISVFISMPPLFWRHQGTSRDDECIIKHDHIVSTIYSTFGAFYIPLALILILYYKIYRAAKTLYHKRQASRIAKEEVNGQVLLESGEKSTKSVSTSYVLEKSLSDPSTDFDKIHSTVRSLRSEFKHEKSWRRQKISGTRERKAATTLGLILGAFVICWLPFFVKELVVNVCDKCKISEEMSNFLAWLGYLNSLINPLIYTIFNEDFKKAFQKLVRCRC

[2] = target: 5-hydroxytryptamine receptor 7 (Homo sapiens, UniProt P34969)
[3] = target: 5-hydroxytryptamine receptor 6 (Homo sapiens, UniProt P50406)
[4] = target: 5-hydroxytryptamine receptor 5A (Homo sapiens, UniProt P47898)
[5] = target: T2, 5-hydroxytryptamine receptor 2C (Homo sapiens, UniProt P28335)
T2 sequence (P28335 whole entry): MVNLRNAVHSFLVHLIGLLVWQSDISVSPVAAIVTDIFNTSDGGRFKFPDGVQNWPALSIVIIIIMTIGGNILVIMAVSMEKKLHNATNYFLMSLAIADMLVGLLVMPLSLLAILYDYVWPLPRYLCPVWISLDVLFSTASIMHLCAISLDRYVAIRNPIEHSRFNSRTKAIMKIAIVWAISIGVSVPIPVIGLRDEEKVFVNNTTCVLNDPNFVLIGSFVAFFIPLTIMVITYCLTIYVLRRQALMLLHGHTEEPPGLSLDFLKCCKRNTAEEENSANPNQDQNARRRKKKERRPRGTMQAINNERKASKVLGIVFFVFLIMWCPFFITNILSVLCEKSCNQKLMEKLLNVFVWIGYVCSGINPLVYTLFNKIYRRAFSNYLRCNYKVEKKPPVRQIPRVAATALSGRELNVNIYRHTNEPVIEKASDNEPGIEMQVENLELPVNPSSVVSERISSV

Sequence of 5-hydroxytryptamine receptor 5A (P47898 whole entry): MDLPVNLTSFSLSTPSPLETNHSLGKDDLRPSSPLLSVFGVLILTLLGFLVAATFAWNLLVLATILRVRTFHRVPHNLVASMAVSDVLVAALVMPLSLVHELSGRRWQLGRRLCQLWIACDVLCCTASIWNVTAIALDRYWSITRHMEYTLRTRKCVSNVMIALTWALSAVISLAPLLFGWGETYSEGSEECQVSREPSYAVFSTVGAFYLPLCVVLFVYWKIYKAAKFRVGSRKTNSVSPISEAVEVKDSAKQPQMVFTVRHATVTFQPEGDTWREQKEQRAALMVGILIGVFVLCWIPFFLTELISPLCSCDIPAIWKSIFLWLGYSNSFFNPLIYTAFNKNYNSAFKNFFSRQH
Sequence of 5-hydroxytryptamine receptor 6 (P50406 whole entry): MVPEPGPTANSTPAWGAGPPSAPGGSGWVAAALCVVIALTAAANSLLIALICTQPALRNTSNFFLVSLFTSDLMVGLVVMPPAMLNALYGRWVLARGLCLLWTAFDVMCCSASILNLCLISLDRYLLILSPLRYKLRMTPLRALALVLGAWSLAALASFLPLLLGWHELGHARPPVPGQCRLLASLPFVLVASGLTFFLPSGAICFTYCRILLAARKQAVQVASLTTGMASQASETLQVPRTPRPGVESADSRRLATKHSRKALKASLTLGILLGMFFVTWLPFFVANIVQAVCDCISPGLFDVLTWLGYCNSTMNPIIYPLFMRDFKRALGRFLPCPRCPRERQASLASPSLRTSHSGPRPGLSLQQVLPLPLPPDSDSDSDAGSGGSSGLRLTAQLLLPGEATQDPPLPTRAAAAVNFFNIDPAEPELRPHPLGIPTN
Sequence of 5-hydroxytryptamine receptor 7 (P34969 whole entry): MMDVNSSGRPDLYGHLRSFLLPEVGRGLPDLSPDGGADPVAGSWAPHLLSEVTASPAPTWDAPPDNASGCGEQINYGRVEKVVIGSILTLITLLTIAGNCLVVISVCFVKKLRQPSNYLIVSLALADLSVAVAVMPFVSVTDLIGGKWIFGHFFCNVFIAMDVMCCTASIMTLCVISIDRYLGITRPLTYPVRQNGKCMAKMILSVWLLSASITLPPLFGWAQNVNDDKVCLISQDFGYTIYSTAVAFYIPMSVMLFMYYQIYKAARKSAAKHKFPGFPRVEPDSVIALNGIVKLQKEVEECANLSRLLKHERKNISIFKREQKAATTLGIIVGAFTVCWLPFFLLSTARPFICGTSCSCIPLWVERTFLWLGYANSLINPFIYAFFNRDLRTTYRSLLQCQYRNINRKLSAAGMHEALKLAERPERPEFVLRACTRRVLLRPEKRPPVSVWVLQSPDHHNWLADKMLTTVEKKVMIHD

Activity [1]: inactive
Ki [2]: 7.07 µM
Ki [3]: 6.21 µM
Ki [4]: 3.3 µM
Ki [5]: 0.417 µM
SMILES: CNC(=O)c1cc(Oc2ccc(NC(=O)Nc3ccc(Cl)c(C(F)(F)F)c3)cc2)ccn1 [SORAFENIB]
